Test results: article PMC3631439 (ACS chemical biology, 2013)
Entries after “also recorded” stand apart in the source; their conditions may differ. Like-named read-outs stand apart in the source and are kept apart here.

How the values were obtained:
tumor promotion = settings: cited from earlier work
human platelets = settings: cited from earlier work
PKCβII = PKCβII (Homo sapiens, UniProt P05771); test: Down regulation of PKCβII in U937 cells; format: cell-based
PKC = settings: cited from earlier work
U937 leukemia cells [1] = format: cell-based, human; settings: 60 hours; for suppression of growth inhibition induced by PMA: co-administered with PMA
human GFP-PKCα = human GFP-PKCα (Homo sapiens, UniProt P17252); test: Translocation of human GFP-PKCα in CHO cells; format: cell-based
Mouse PKC α = Mouse PKC α (Mus musculus, UniProt P20444); test: biochemical; format: binding
human GFP-PKCδ = human GFP-PKCδ (Homo sapiens, UniProt Q05655); test: Translocation of human GFP-PKCδ in LNCaP cells; format: cell-based; settings: 1000 nM PMA, 1000 nM bryostatin 1, 3000 nM bryostatin 7
Sequence of human GFP-PKCδ (Q05655 whole entry, canonical isoform): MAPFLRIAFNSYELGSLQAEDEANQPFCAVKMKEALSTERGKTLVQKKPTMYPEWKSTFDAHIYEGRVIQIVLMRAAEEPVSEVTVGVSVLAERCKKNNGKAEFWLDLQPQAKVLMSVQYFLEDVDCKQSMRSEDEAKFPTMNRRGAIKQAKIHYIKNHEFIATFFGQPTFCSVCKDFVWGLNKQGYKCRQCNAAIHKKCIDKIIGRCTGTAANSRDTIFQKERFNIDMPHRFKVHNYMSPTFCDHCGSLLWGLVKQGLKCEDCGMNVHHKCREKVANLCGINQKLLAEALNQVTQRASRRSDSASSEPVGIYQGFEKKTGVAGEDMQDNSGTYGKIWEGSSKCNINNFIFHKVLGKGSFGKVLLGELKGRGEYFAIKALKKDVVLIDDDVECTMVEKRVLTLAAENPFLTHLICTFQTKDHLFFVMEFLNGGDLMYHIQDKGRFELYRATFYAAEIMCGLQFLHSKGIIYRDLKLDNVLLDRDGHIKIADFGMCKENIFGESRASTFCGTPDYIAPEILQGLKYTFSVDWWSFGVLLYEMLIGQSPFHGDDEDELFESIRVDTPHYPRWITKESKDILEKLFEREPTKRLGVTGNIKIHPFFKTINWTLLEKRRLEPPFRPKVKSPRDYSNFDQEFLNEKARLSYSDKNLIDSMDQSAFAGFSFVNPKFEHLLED

[2] = tested on: human PKC isoforms α, βII, δ, and ε
human YFP-PKCε = target: T1, human YFP-PKCε (Homo sapiens, UniProt Q02156); test: Translocation of human YFP-PKCε in LNCaP cells; format: cell-based
T1 sequence (Q02156 1-737): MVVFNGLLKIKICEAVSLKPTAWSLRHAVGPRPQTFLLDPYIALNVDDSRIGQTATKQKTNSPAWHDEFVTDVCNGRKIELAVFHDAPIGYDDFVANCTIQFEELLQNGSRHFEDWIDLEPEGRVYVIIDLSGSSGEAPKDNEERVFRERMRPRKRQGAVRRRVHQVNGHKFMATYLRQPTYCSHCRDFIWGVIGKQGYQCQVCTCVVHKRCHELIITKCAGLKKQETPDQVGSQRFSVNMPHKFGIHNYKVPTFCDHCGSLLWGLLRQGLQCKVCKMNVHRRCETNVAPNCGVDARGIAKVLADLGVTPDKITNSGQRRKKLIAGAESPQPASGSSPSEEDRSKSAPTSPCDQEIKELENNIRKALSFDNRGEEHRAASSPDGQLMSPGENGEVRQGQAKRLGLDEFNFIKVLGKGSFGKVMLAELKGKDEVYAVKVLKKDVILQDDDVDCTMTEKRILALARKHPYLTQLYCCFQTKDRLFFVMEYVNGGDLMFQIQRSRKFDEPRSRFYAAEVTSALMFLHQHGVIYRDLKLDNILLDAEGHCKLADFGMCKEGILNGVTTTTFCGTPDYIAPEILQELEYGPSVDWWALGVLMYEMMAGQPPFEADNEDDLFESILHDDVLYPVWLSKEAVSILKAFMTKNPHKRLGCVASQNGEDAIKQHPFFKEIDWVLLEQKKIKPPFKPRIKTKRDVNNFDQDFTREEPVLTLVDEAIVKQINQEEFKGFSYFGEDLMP

U937 leukemia cells [3] = format: cell-based, human; settings: 60 hours; for cell attachment: U937 cells; for inhibition of attachment induced by PMA: co-administered with PMA
[4] = tested on: phorbol ester responsive genes in LNCaP cells; test: Gene induction in LNCaP cells; format: cell-based, human; settings: 6 hours, 1000 nM
PKCδ = PKCδ (Homo sapiens, UniProt Q05655); test: Down regulation of PKCδ in U937 cells; format: cell-based
Sequence of PKCδ (Q05655 whole entry): as the sequence (Q05655 whole entry, canonical isoform) above

[5] = tested on: TNFα secretion in LNCaP cells; test: TNFα secretion by LNCaP cells; settings: for inhibition of secretion of TNFα induced by PMA: 30 nM PMA; for secretion of TNFα: 24 h
U937 cells = format: cell-based, human; settings: araC 1 μM, 24 h; bryostatin 1 100 nM, bryostatin 7 1000 nM
mouse GFP-PKCδ = mouse GFP-PKCδ (Mus musculus, UniProt P28867); test: Translocation of mouse GFP-PKCδ in LNCaP cells; format: cell-based; settings: 1000 nM PMA, 1000 nM bryostatin 1, 3000 nM bryostatin 7
Sequence of mouse GFP-PKCδ (P28867 whole entry, canonical isoform): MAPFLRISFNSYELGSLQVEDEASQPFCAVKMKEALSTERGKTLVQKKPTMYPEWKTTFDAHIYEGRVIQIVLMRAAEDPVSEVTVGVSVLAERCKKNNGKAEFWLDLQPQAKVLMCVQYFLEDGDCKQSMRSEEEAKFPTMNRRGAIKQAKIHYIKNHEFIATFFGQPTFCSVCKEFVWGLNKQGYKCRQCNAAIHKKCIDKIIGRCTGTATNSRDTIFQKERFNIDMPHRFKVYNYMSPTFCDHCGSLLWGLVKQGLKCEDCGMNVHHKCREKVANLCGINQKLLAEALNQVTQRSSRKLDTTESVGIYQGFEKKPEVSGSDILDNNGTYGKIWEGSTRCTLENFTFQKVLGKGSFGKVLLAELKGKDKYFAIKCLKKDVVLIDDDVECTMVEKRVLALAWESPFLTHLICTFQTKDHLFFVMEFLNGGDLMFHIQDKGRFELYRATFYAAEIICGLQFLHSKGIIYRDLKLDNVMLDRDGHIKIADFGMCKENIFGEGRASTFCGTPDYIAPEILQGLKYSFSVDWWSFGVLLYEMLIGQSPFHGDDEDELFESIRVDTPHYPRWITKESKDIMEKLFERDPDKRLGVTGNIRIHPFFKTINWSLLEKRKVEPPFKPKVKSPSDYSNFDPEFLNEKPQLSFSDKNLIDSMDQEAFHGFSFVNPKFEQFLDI

[6] = tested on: PKC isoforms and PKD1 in LNCaP cells; test: Subcellular fractionation of LNCaP cells; format: cell-based, human; settings: 60 min
[7] = tested on: LNCaP human prostate cancer cells; test: Proliferation of LNCaP cells; settings: for inhibition of proliferation of LNCaP cells: 36 h; for block of inhibition of proliferation by PMA: PMA 30 nM co-administered
[8] = tested on: PKC signaling in LNCaP cells; test: PKC and downstream signaling in LNCaP cells; format: cell-based, human; settings: 60 min
PKCε = target: T2, PKCε (Homo sapiens, UniProt Q02156); test: Down regulation of PKCε in U937 cells; format: cell-based; settings: data not shown
T2 sequence (Q02156 1-737): T1 sequence (Q02156 1-737)

[9] = tested on: TNFα secretion in U937 cells; test: TNF-alpha secretion by U937 cells; format: cell-based, human
[10] = read-out: EC50 for down regulation of PKCβII, 24 hours

Sequence of PKCβII (P05771 1-673 isoform P05771-2): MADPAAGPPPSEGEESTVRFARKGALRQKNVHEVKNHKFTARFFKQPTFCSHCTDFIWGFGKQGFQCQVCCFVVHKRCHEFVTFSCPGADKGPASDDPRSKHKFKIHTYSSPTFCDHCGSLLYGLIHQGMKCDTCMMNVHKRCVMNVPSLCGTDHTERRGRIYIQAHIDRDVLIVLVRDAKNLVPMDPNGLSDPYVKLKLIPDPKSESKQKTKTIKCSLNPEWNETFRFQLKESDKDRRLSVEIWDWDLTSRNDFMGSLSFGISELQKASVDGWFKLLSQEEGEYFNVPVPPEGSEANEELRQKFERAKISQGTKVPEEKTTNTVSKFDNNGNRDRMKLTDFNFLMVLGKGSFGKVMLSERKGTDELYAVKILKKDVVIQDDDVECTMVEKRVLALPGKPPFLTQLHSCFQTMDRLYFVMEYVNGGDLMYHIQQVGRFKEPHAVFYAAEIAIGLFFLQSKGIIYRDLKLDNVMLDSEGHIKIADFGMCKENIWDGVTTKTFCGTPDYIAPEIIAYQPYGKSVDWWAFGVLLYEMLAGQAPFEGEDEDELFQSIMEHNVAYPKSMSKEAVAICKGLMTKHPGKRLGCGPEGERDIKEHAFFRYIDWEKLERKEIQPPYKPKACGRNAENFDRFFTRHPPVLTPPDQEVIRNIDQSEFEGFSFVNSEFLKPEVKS

Row | Structure (SMILES) | tumor promoting activity (tumor promotion) | inhibition of U937 cell proliferation (U937 leukemia cells [1]) | suppression of growth inhibition induced by PMA (U937 leukemia cells [1]) | Ki (Mouse PKC α) [nM] | translocation pattern of human GFP-PKCδ (human GFP-PKCδ) | cell attachment (U937 leukemia cells [3]) | inhibition of attachment induced by PMA (U937 leukemia cells [3]) | changes in levels of mRNA expression [4] | down regulation of PKCδ (PKCδ; 24 hours) | inhibition of secretion of TNFα induced by PMA [5] | secretion of TNFα [5] | synergy with araC for loss of mitochondrial membrane potential (U937 cells) | translocation pattern of mouse GFP-PKCδ (mouse GFP-PKCδ) | PKCδ in the nuclear enriched fraction [6] | pPKD1 in the nuclear fraction [6] | inhibition of proliferation of LNCaP cells [7] | block of inhibition of proliferation by PMA [7] | PKCδ phosphorylation on Y311 [8] | induction of PKCδ phosphorylation at S299 [8] | translocation pattern of human GFP-PKCα (human GFP-PKCα; CHO cells, 1000 nM) | further results
1 | CC(=O)O[C@@]12C[C@@H](C)[C@@]3(O)[C@@H](C=C(CO)C[C@]4(O)C(=O)C(C)=C[C@@H]34)[C@@H]1C2(C)C [prostratin] | inhibits tumor promotion | – | – | – | – | – | – | – | – | – | – | – | – | – | – | – | – | – | – | – | –
2 | COC(=O)/C=C1/C[C@H]2C[C@]3(O)O[C@H](C[C@@H](O)CC(=O)O[C@@H]([C@@H](C)O)C[C@@H]4C/C(=C\C(=O)OC)[C@H](OC(C)=O)[C@@](O)(O4)C(C)(C)/C=C/[C@@H](C1)O2)C[C@H](OC(C)=O)C3(C)C [Bryostatin 7, bryostatin 7] | – | very limited, biphasic inhibition; also recorded: inhibited proliferation slightly more than did bryostatin 1 | able to suppress the growth inhibition induced by PMA | 0.26 ± 0.06 | only caused translocation of the human GFP-PKCδ to nuclear and internal membranes | much reduced level of cell attachment compared to that induced by PMA; also recorded: induced slightly more attachment than did bryostatin 1 | able to inhibit the attachment induced by PMA | generally similar for bryostatin 1 and bryostatin 7 and less than they were for PMA | resembled bryostatin 1 | inhibits the secretion of TNFα induced by PMA | minimal secretion of TNFα | able to synergize with araC | only to the nuclear membrane and internal membranes | resembled bryostatin 1 for this response | behaved similarly to bryostatin 1 | fails to inhibit proliferation | able to block the inhibition of proliferation by PMA | inability to induce efficient PKCδ phosphorylation on Y311 | closely similar | – | aggregation of human platelets (human platelets): mimics the activity of the phorbol ester PMA in inducing aggregation of human platelets; potency for PKCβII down regulation, fold weaker than bryostatin 1 (PKCβII; 24 hours): 3 fold; EC50 (PKCβII; [10]): 0.97 ± 0.08 nM; binding affinity towards PKC among bryostatins (PKC): highest binding affinity towards PKC; translocation pattern of human GFP-PKCα (human GFP-PKCα): pattern of translocation similar to that of bryostatin 1; selectivity among PKC isoforms [2]: little selectivity among these PKC isoforms; translocation pattern of human YFP-PKCε (human YFP-PKCε): no plasma membrane translocation; potency for PKCδ down regulation, fold weaker than bryostatin 1 (PKCδ; 24 hours): approximately 3 fold; EC50 (PKCδ; read-out: EC50 for down regulation of PKCδ, 24 hours): 0.22 ± 0.03 nM; induction of cFos or EGR1 [8]: reduced induction of cFos or EGR1 at 60 min compared to bryostatin 1; phosphorylation of PKD1 [8]: somewhat less phosphorylation of PKD1 than did bryostatin 1
3 | CC(C)[C@H]1C(=O)N[C@H](CO)Cc2c[nH]c3cccc(c23)N1C [indolactam V] | tumor promoters | – | – | – | – | – | – | – | – | – | – | – | – | – | – | – | – | – | – | – | –
4 | CCC/C=C/C=C/C(=O)O[C@H]1/C(=C/C(=O)OC)C[C@H]2C[C@H]([C@@H](C)O)OC(=O)C[C@H](O)C[C@@H]3C[C@H](OC(C)=O)C(C)(C)[C@](O)(C[C@@H]4C/C(=C/C(=O)OC)C[C@H](/C=C/C(C)(C)[C@]1(O)O2)O4)O3 [Bryostatin 1, bryostatin 1] | – | very limited, biphasic inhibition | able to suppress the growth inhibition induced by PMA | 0.48 ± 0.03 | some initial plasma membrane translocation | much reduced level of cell attachment compared to that induced by PMA | able to inhibit the attachment induced by PMA | generally similar for bryostatin 1 and bryostatin 7 and less than they were for PMA | down regulation with a biphasic dose response curve | inhibits the secretion of TNFα induced by PMA | minimal secretion of TNFα | able to synergize with araC | only to the nuclear membrane and internal membranes | – | – | little inhibitory effect | prevents the inhibition by PMA | inability to induce efficient PKCδ phosphorylation on Y311 | closely similar | some translocation of the human PKCα to the plasma membrane but with most forming a thick ring around the nucleus | DC50 (PKCβII; [10]): 0.31 ± 0.005 nM; translocation pattern of human YFP-PKCε (human YFP-PKCε; LNCaP cells, 1000 nM): resembled that with PMA, albeit less extensive; down regulation of PKCε (PKCε): little down regulation
5 | CCCCCCCCCCCCCC(=O)O[C@@H]1[C@@H](C)[C@@]2(O)[C@@H](C=C(CO)C[C@]3(O)C(=O)C(C)=C[C@@H]23)[C@@H]2C(C)(C)[C@]12OC(C)=O [PMA] | tumor promoter | – | – | – | – | – | – | – | little down regulation | – | – | – | initial translocation to the plasma membrane | increase in PKCδ in the nuclear enriched fraction | substantial accumulation in the nuclear fraction | inhibits cellular proliferation | – | – | – | slow but clear plasma membrane translocation | level of down regulation of PKCβII (PKCβII; 24 hours): less down regulation; TNFα secretion [9]: higher level of secretion; translocation pattern of human YFP-PKCε (human YFP-PKCε; LNCaP cells, 1000 nM): rapid clearing of the cytoplasm with translocation of PKCε to the plasma membrane; down regulation of PKCε (PKCε): little down regulation
